{
  "source": "patent US20090131520A1",
  "about": "“Lipid metabolism Improving Composition” (priority 2005, published 2009)",
  "key": {"apolipoprotein B (B100)": {"tested_on": "apolipoprotein B (B100)", "experiment": "Secretion of apolipoprotein B (B100) from HepG2 cells into the test medium, ELISA", "format": "cell-based, human", "conditions": "150 μM, 24 hr culture, FIG. 1", "protocol": "(§1) A test medium containing 150 μM of linolic acid menthol ester (1% BSA-DMEM) was provided. In this test medium, human liver-derived HepG2 cells were cultured for 24 hr, and the cells and the medium were collected.\n(§2) Evaluation 2: Test on Secretion (Inhibition/Enhancement) of Apolipoproteins A and B\n(§3) The amount of apolipoprotein A (A1) and apolipoprotein B (B100) secreted from the human liver-derived HepG2 cells into the test medium was measured by the ELISA method."}, "apolipoprotein A (A1)": {"tested_on": "apolipoprotein A (A1)", "experiment": "Secretion of apolipoprotein A (A1) from HepG2 cells into the test medium, ELISA", "format": "cell-based, human", "conditions": "150 μM, 24 hr culture, FIG. 2", "protocol": "as §1, §2, §3"}},
  "data": [
    {"smiles": "CCCCC/C=C\\C/C=C\\CCCCCCCC(=O)OC1CC(C)CCC1C(C)C", "note": "(centres unmarked) [linolic acid menthol ester]", "values": [
      {"measurement": "amount of apolipoprotein B (B100) secreted", "setting": "apolipoprotein B (B100)", "result": "inhibit the secretion of apolipoprotein B (B100)"},
      {"measurement": "amount of apolipoprotein A (A1) secreted", "setting": "apolipoprotein A (A1)", "result": "significantly enhance the secretion of apolipoprotein A (A1)"}
    ]}
  ]
}
